{"source": "patent US20090227669A1", "about": "“Compositions and Methods for Perioperative Bladder Instillation” (THE UNIVERSITY OF TOLEDO, priority 2004, published 2009)", "key": {"[1]": {"test_system": "AY-27 rat transitional cancer cell line", "assay": "AY-27 cell survival/growth under EGCG treatment", "type": "cell-based"}, "AY-27 cells [2]": {"test_system": "AY-27 cells", "assay": "DNA ladder assay in AY-27 cells", "type": "cell-based, rat"}, "AY-27 cells [3]": {"test_system": "AY-27 cells", "assay": "Intravesical EGCG instillation after AY-27 tumor cell implantation in cauterized rat bladder", "type": "in vivo, Fisher 344 rats", "description": "Single Polyphenol (EGCG): Fisher 344 rats were maintained under guidelines of the Medical College of Ohio Institutional Animal Care and Use Committee. A combination ketamine (80 mg/kg)/xylazine (12 mg/kg) intraperitoneal injection was used to anesthetize the rats prior to surgery. The abdomen was shaved and prepped with an iodine solution under sterile conditions. Oxytetracycline 20 mg was injected subcutaneously for antibacterial prophylaxis. Under 4× microscopic magnification, a 1.5 cm midline incision exposed the bladder. A sterile, 22 gauge Angiocath cannula was then advanced transurethrally. A blunt-tipped 24 gauge copper wire was then advanced through the catheter and a […] current was used to cauterize the bladder wall creating a small, white puckered area. The skin and muscular layers of the abdominal wall were closed with a running 4-0 silk suture.\nAY-27 cells suspended in 0.25 cc of serum free RPMI-1640 medium were instilled transurethrally into 40 rats. The catheters were then capped and the tumor cells were allowed to dwell inside the bladder for 30 minutes. After tumor cell instillation, twelve rats (Group I) had two, separately hourly instillations of culture medium. Twenty-eight rats (Group II) were treated with a freshly prepared solution of 0.25 cc, 200 microM EGCG solution in RPLMI-1640 medium for 2 separate dwell times of one hour. […]"}, "[4]": {"conditions": "orally administered; along with at least five metabolites; cited from earlier work"}}, "data": [{"compound": "O=C(O[C@@H]1Cc2c(O)cc(O)cc2O[C@@H]1c1cc(O)c(O)c(O)c1)c1cc(O)c(O)c(O)c1", "note": "[EGCG, epigallocatechin-gallate]", "values": [{"measurement": "cellular growth of AY-27 cell line", "setting": "[1]", "value": "inhibits cellular growth"}, {"measurement": "cellular survival", "setting": "[1]; after two hours of treatment at all concentrations of EGCG", "value": "No cellular survival"}, {"measurement": "banding pattern on DNA ladder assay (apoptosis)", "setting": "AY-27 cells [2]", "value": "weak banding pattern"}, {"measurement": "tumor growth rate", "setting": "AY-27 cells [3]; 200 microM EGCG, 0.25 cc, 2 separate dwell times of one hour, euthanized three weeks later, n=28, controls 100%", "value": 36, "unit": "%"}, {"measurement": "incidence of bladder tumor implantation", "setting": "AY-27 cells [3]; intravesical EGCG at 200 microM for 2 hours", "value": "significantly reduce"}, {"measurement": "fraction of total administered EGCG found in urine", "setting": "[4]", "value": "0.03-0.59%"}]}]}
